Experimental data: US20070225278A1, “Methods for treating cognitive and other disorders” (priority 2006, published 2007)

Key:
rats = experiment: 5-choice serial reaction time test (5CSRT), variable ITI; type: in vivo, rat; settings: 1 mg/kg ip, 10 and 7 sec ITI, p<0.05 vs vehicle
Source text: The 5-choice serial reaction time task is a behavioral assay that is used to measure attention and impulsivity in rats. Rats are trained to respond correctly to aperture illuminations reinforced to food rewards until they reach >70% correct responses during a 30-minute baseline session. Once animals reach baseline criteria, a variable stimulus duration (SD) and variable inter-trial interval (ITI) test can be used to manipulate normal baseline performance. […] When the ITI is increased from that used during baseline training impulsivity, as measured by premature responses, is increased. Compounds and manipulations that improve attention will improve performance and those that decrease impulsivity will decrease premature responses.
5CSRT: The test apparatus consisted of ten 25×25 cm aluminum chambers (Med Associates Inc., St. Albans, Vt.). The rear wall of each chamber was concavely curved, containing five accessible apertures, each 2.5 cm square, and 4 cm deep positioned 2 cm above floor level. […]
5CSRT Training: Prior to drug treatments, rats were trained to discriminate a brief visual stimulus light presented randomly in one of the five spatial locations. […] A single nose-poke in this opening during the period of illumination (signal period), or during the 5 second afterwards (limited hold) was reinforced by the delivery of a food pellet and a correct response was recorded. […]

[1] = system: acetylcholine in medial prefrontal cortex; experiment: In vivo microdialysis, acetylcholine in medial prefrontal cortex; settings: 17 mg/kg s.c., rat
Experimental: Animals: Adult male Sprague-Dawley rats (Charles River, Wilmington, Mass.) weighing 280-350 g at the time of surgery were used for all microdialysis experiments. Adult male Long-Evans rats (Charles River, Wilmington, Mass.) weighing 180-220 g were used for NOR studies. Rats were housed individually for recognition memory studies. All animals had free access to food and water and were group housed in the AAALAC-accredited facility that was maintained on a 12 h light dark cycle (lights on at 0600 h) for at least 1 week prior to surgery or behavioral testing. All in vivo studies were performed in accordance to the ‘Guide for the Care and Use of Laboratory Animals’ as adopted and promulgated by the National Institutes of Health (Pub. 85-23, 1985). […]
Analysis of Acetylcholine Dialysate levels of acetylcholine were determined using LC/MS/MS. […]
Acetylcholine data were quantified using peak area against an internal standard and acquired using Masslynx software (Micromass, Beverly, Mass., USA). The mean of the concentration of baseline samples was calculated and denoted as 0%. All sample values were expressed as a percent change from this pre-injection mean baseline value (% change from baseline). Neurochemical data, excluding pre-injection values, were analyzed by a two-way analysis of variance (ANOVA) with repeated measures (time). […]

c1cc2c3c(c1)[C@H]1CCC[C@H]1N3CCNC2 [Compound 1]
premature responding (rats): statistically significant decrease | maximal increase in acetylcholine with respect to baseline [1]: 63%
